# Assay results: patent US7601687B2, “Mechanism for identifying drugs for the treatment of type II diabetes” (BioCrine AB, priority 2006, dated 2009)
# What was measured:
# βGK mRNA = βGK mRNA steady-state levels (comparative RT-PCR) in cultured pancreatic islets / insulin-producing cells; format: cell-based, rat; conditions: 50 mM KCl or 1 μM glibenclamide for 5 min at substimulatory glucose
# Description: (§1) Insulin-producing HIT-T15 cells were obtained from ATCC. HIT cells were reported to show glucose responsiveness at subphysiological concentrations between 0.1 and 2 mM (Sharma et al., 1995). HIT cells were grown in RPMI 1640 medium supplemented with 100 units/ml penicillin, 100 μg/ml streptomycin, 2 mM glutamine and 10% fetal calf serum at 5% CO2 and 37° C. Pancreatic islets were isolated from normally fed male Wistar rats and from mice by collagenase digestion. Isolated islets were incubated overnight at 5% CO2 and 37° C. in RPMI 1640 medium, supplemented as described above. Transfection of HIT-T15 and islet cells was performed overnight by the lipofectamine technique in RPMI 1640 medium, without serum and antibiotics. For on-line monitoring, cells were grown and transfected on 24-mm glass coverslips. Following transfection, HIT cells were cultured for 12-18 h in RPMI 1640 medium containing 0.1 mM glucose, 10% fetal calf serum and supplemented as above. Before stimulation, islets and islet cells were incubated for 2 h in RPMI 1640 medium, supplemented as above but containing 3 mM glucose. All expression constructs were prepared using the Qiagen Plasmid Maxi Kit (Qiagen), except those used to produce the adenoviruses which where purified by ultracentrifugation via a CsCI-gradient (as described in Sambrook et al, 1989).
# (§2) All experiments were performed in RPMI 1640 medium, supplemented as above. Protein kinase inhibitors, antibodies or nifedipine were added to the culture medium 30 min prior to stimulation and were kept in the medium throughout stimulation. After stimulation islets, islet cells and HIT cells were cultured further at substimulatory glucose concentrations (0.1 mM for HIT cells and 3 mM for islets and islet cells). For RNA-analysis, islets and cells were harvested 60 min after start of stimulation, if not indicated otherwise. For analysis of protein kinase activities or tyrosine phosphorylation, cells were harvested immediately following stimulation.
# RNA Analysis Levels of βGK mRNA were analyzed by RNase-protection assays and comparative RT-PCR. […] Quantification of the protected complexes was performed by phosphorimaging. […] Levels of μGK mRNA were analyzed by RT-PCR using primers 5′-[…]-3′(SEQ ID NO: 1) and 5′-[…]-3′(SEQ ID NO: 2) for characterizing μGK mRNA in HIT cells and primers 5′-[…]-3′(SEQ ID NO: 3) and 5′-[…]-3′(SEQ ID NO: 4) for μGK mRNA in rat and mouse pancreatic islets and islet cells. Levels of μ-actin mRNA were analyzed by RT-PCR using primers 5′-[…]-3′(SEQ ID NO: 5) and 5′-[…]-3′(SEQ ID NO: 6). […] PCR products were separated on a 6% polyacrylamide sequencing gel and analyzed by phosphorimaging. […]
# rat βGK promoter = experiment: On-line monitoring of βGK promoter-driven GFP expression (prβGK.GFP) in transfected HIT-T15 cells, islet cells and islets; format: cell-based, hamster (HIT-T15), rat (islet cells); conditions: for βGK promoter-driven GFP expression upon secretagogue stimulation: 50 mM KCl or 1 μM glibenclamide for 5 min at substimulatory glucose; for effect of inhibitor on insulin-stimulated βGK transcription / promoter activity: 5 mU/ml insulin 5 min, 150 nM BIM, 20 μM PD98059, 10 μM PD169316, 100 μM HNMPA-(AM)3, 400 nM AC, FIG. 5; for effect of inhibitor on insulin-stimulated βGK transcription / promoter activity / effect of inhibitor on insulin-stimulated βGK promoter activity (GFP) in the same co-transfected cell: 25 μM LY294002, 10 nM rapamycin; for effect of inhibitor on insulin-stimulated βGK promoter activity (GFP) in the same co-transfected cell: 5 mU/ml insulin, 400 nM AC, 100 μM HNMPA-(AM)3
# Source text: Construction of prIns1.GFP has been described earlier (Leibiger et al., 1998a). Vector prIns1.DsRed was generated by exchanging the EGFP-expression cassette versus the DsRed-expression cassette obtained from pDsRed1-1 (Clontech). Plasmid prβGK.GFP (i.e. prβGK-278.GFP) was generated by exchanging the CAT-SV40pA-expression cassette of prβGK-278.CAT (Leibiger et al., 1994a) versus the EGFP-bGHpA-expression cassette obtained from pRcCMVI.GFP (Moede et al., 1999). […] All vector constructions were verified by DNA sequence analysis. […] Expression constructs pCMV5.PKBα, pCMV5.PKBαΔ308/437, pCMV5.PDK1 and pCMV5.PDK1-antisense were kindly provided by Drs. P. Cohen and D. R. Alessi (MRC Phosphorylation Unit, University of Dundee, UK).
# as §1, with “HIT” for “Insulin-producing HIT-T15 cells were obtained from ATCC. HIT”
# Islets were transduced with Ad.rβGK.GFP or Ad.CMV.GFP by incubating 50 islets with 1 ml virus-containing medium for 90 min at 37° C. and 5% CO2. Following transduction, islets were washed 3 times with PBS and cultured further in RPMI 1640 medium. Islets were stimulated 40-72 h after transduction, as described below and analyzed by laser-scanning confocal microscopy.
# as §2
# (§3) Detection of fluorescence by digital imaging fluorescence microscopy was performed as described previously (Leibiger et al., 1998a; Leibiger et al., 1998b). Briefly, transfected cells were grown on 24-mm glass coverslips. After stimulation the coverslips were placed into a perifusion chamber which was mounted on an inverted microscope (Zeiss Axiovert 135TV). Temperature was kept at 37° C. and the cells were perfused with RPMI 1640 medium. The objective lens used was a Zeiss-Fluar ×40/1.30 oil Imm Korr. Fluorescence imaging was performed with a cooled charged-coupled device camera (CH250 with KAF 1400, Photometrics, Tucson, Ariz.) connected to an imaging system (Inovision) with fluorescence excitation from a SPEX fluorolog-2 CM1T11I spectrofluorometer (Spex Industries).
# [1] = system: rat insulin-I gene promoter; experiment: On-line monitoring of insulin promoter-driven DsRed/GFP expression (prIns1.DsRed) in transfected HIT-T15 cells and islet cells; format: cell-based, hamster (HIT-T15), rat (islet cells)
# Source text: Construction of prIns1.GFP has been described earlier (Leibiger et al., 1998a). Vector prIns1.DsRed was generated by exchanging the EGFP-expression cassette versus the DsRed-expression cassette obtained from pDsRed1-1 (Clontech). Plasmid prβGK.GFP (i.e. prβGK-278.GFP) was generated by exchanging the CAT-SV40pA-expression cassette of prβGK-278.CAT (Leibiger et al., 1994a) versus the EGFP-bGHpA-expression cassette obtained from pRcCMVI.GFP (Moede et al., 1999). […] All vector constructions were verified by DNA sequence analysis. Constructs for expression of the human Insulin Receptor A and B types, pCMVHIR(A) and pCMVHIR(B) and the control plasmid pCMVstop were kindly provided by Dr. A. Ullrich (Max-Planck-Institute for Biochemistry, Martinsried, Germany). Expression constructs pCMV5.PKBα, pCMV5.PKBαΔ308/437, pCMV5.PDK1 and pCMV5.PDK1-antisense were kindly provided by Drs. P. Cohen and D. R. Alessi (MRC Phosphorylation Unit, University of Dundee, UK).
# as §1, §2
# as §3, with “Industries). The following filter-settings were used: for GFPs65T: excitation at 485 nm, a 505 nm dicroic mirror and an emission band-pass filter of 500-530 nm; for DsRed: excitation at 558 nm, a 565 nm dicroic mirror and a 580 nm long-pass filter for emission […]” for “Industries).”
# [2] = co-transfected HIT cells, 5 mU insulin/ml (FIG. 9A)
# [3] = co-transfected HIT cells, 5 mU insulin/ml (FIG. 9B)
# [4] = 2.6 nM IGF-I, insulin-producing cells
compound,measurement,setting,value
"[Cl-].[K+] [KCI, KCl]",βGK mRNA steady state levels upon secretagogue stimulation,βGK mRNA,increase
same,βGK promoter-driven GFP expression upon secretagogue stimulation,rat βGK promoter,elevation
O=c1cc(N2CCOCC2)oc2c(-c3ccccc3)cccc12 [LY294002],effect of inhibitor on insulin-stimulated βGK transcription / promoter activity,rat βGK promoter,not inhibited
same,effect of inhibitor on insulin-stimulated βGK promoter activity (GFP) in the same co-transfected cell,rat βGK promoter,no effect
same,concentration necessary to completely abolish insulin-stimulated βGK promoter activity,rat βGK promoter; [2],100 µM
same,concentration that blocked insulin-stimulated insulin promoter activity,[1]; [2],25 µM
COc1cccc(-c2cc(=O)c3ccccc3o2)c1N [PD98059],effect of inhibitor on insulin-stimulated βGK transcription / promoter activity,rat βGK promoter,not sensitive
CN(C)CCCn1cc(C2=C(c3c[nH]c4ccccc34)C(=O)NC2=O)c2ccccc21 [bisindolylmalemide I],effect of inhibitor on insulin-stimulated βGK transcription / promoter activity,rat βGK promoter,not sensitive
COc1ccc(Cl)cc1C(=O)NCCc1ccc(S(=O)(=O)NC(=O)NC2CCCCC2)cc1 [glibenclamide],βGK mRNA steady state levels upon secretagogue stimulation,βGK mRNA,increase
same,βGK promoter-driven GFP expression upon secretagogue stimulation,rat βGK promoter,elevation
CO[C@H]1C[C@@H]2CC[C@@H](C)[C@@](O)(O2)C(=O)C(=O)N2CCCC[C@H]2C(=O)O[C@H]([C@H](C)C[C@@H]2CC[C@@H](O)[C@H](OC)C2)CC(=O)[C@H](C)/C=C(\C)[C@@H](O)[C@@H](OC)C(=O)[C@H](C)C[C@H](C)/C=C/C=C/C=C/1C [rapamycin],effect of inhibitor on insulin-stimulated βGK transcription / promoter activity,rat βGK promoter,not inhibited
same,effect of inhibitor on insulin-stimulated βGK promoter activity (GFP) in the same co-transfected cell,rat βGK promoter,no effect
COC[C@H]1OC(=O)c2coc3c2[C@@]1(C)C1=C(C3=O)[C@@H]2CCC(=O)[C@@]2(C)C[C@H]1OC(C)=O [wortmannin],concentration necessary to block insulin-stimulated βGK promoter activity,rat βGK promoter; [3],150 nM
same,concentration sufficient to inhibit insulin-stimulated insulin promoter activity,[1]; [3],50 nM
IGF-I,βGK promoter-driven reporter gene expression upon IGF-I stimulation,rat βGK promoter; [4],did not activate
same,insulin promoter-driven reporter gene expression upon IGF-I stimulation,[1]; [4],did not activate
